Results: ChEMBL document CHEMBL1201862, “PubChem BioAssay data set” (2004)
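Interpolation was linear, between the two tested concentrations surrounding the appropriate level; five concentrations were tested over 48 hours in 96-well plates. GI50 = concentration required for 50% inhibition of growth.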 Calls of active or inactive are those of the source. Cut-off read from the data, not from the text of the source: active = GI50 up to about 1.1 µM and inactive = higher.

Columns and labels:
Assay in all cases: NCI tumour cell line growth inhibition, 48 h
[1] = test system: ACHN
[2] = test system: HOP-92
[3] = test system: K562
[4] = test system: NCI-H23
[5] = test system: OVCAR-4
[6] = test system: OVCAR-8
[7] = test system: SF-539
[8] = test system: SK-MEL-2
[9] = test system: SK-MEL-5
[10] = test system: SN12C
[11] = test system: SNB-75
[12] = test system: SW-620
[13] = test system: UACC-257
[14] = test system: UACC-62
[15] = test system: UO-31
[16] = test system: KM12
[17] = test system: NCI-H522

Measured: GI50

O=C(O)CSc1nnc(-c2ccccc2O)[nH]1
inactive: [1] > 100 µM | [2] > 100 µM | [3] > 100 µM | [4] > 100 µM | [5] > 100 µM | [6] > 100 µM | [7] > 100 µM | [8] > 100 µM | [9] > 100 µM | [10] > 100 µM | [11] > 100 µM | [12] > 100 µM | [13] > 100 µM | [14] > 100 µM | [15] > 100 µM

CN(C)/N=N/c1cccc(C(N)=O)c1
inactive: [1] > 100 µM | [2] > 100 µM | [3] > 100 µM | [16] > 100 µM | [4] > 100 µM | [5] > 100 µM | [6] > 100 µM | [7] > 100 µM | [8] > 100 µM | [9] > 100 µM | [10] > 100 µM | [11] 69.3 µM | [12] > 100 µM | [15] > 100 µM

CC1=NN(C(=O)Nc2ccccc2)C(=O)C2CCC(=O)N12 (configuration not stated)
inactive: [1] > 100 µM | [2] > 100 µM | [3] > 100 µM | [16] > 100 µM | [4] > 100 µM | [5] > 100 µM | [6] > 100 µM | [7] > 100 µM | [8] > 100 µM | [9] > 100 µM | [10] > 100 µM | [11] 84.3 µM | [12] > 100 µM | [13] > 100 µM | [14] > 100 µM | [15] > 100 µM

CSc1nnc(COc2ccc(Cl)cc2)o1
inactive: [1] > 100 µM | [16] > 100 µM | [4] > 100 µM | [17] > 100 µM | [5] > 100 µM | [6] > 100 µM | [7] > 100 µM | [9] > 100 µM | [10] > 100 µM | [11] > 100 µM | [12] > 100 µM | [13] > 100 µM | [14] > 100 µM | [15] > 100 µM

CC(C)O/C=C1\C(=O)C2(SCCS2)[C@H]2CCCC[C@@H]12
inactive: [1] 39.3 µM | [3] 39.8 µM | [16] 35.6 µM | [17] 20.5 µM | [5] 48.9 µM | [6] 36.6 µM | [7] 44.3 µM | [8] 34.8 µM | [9] 25.2 µM | [10] 68.7 µM | [11] 28.8 µM | [12] 42.7 µM | [13] 42.6 µM | [14] 20.9 µM | [15] 41.3 µM

CCCCCCCCCCCCCCCC(=O)NCC(COP(=O)([O-])OCC[N+](C)(C)C)OCC (configuration not stated)
inactive: [1] 15 µM | [2] 3.52 µM | [16] 1.27 µM | [4] 18.8 µM | [5] 3.21 µM | [6] 4.42 µM | [7] 16.2 µM | [9] 18.9 µM | [10] 12.5 µM | [11] 11 µM | [12] 13 µM | [13] 15.7 µM | [14] 9.35 µM | [15] 18.5 µM

COc1ccc(NC(=O)CC(=O)N/N=C(\C)c2cc3ccccc3oc2=O)cc1
inactive: [1] > 100 µM | [3] > 100 µM | [16] > 100 µM | [4] > 100 µM | [17] > 100 µM | [6] > 100 µM | [7] > 100 µM | [9] > 100 µM | [10] > 100 µM | [11] > 100 µM | [12] > 100 µM | [13] 89.9 µM | [14] > 100 µM | [15] > 100 µM

O=C(CC1(O)C(=O)Nc2c(Cl)ccc(Cl)c21)c1ccc(F)cc1 (configuration not stated)
inactive: [1] 66.1 µM | [2] 30.4 µM | [3] 23.3 µM | [16] 43 µM | [4] 23.2 µM | [17] 30.3 µM | [5] 31 µM | [6] 36.3 µM | [8] 48.5 µM | [9] 17.9 µM | [10] 60.1 µM | [11] 24.1 µM | [12] 34.1 µM | [13] 33.5 µM | [15] 44.5 µM

OC12CCC3(OC4CCCCO4)c4ccccc4C3C1c1ccccc12 (configuration not stated)
inactive: [1] 41.7 µM | [3] 46 µM | [16] 54.6 µM | [4] 90.2 µM | [17] 37.6 µM | [5] > 100 µM | [6] 74.3 µM | [8] > 100 µM | [9] 48.5 µM | [10] 87.7 µM | [11] > 100 µM | [12] 55.6 µM | [13] 91.2 µM | [14] 56.8 µM | [15] 59.6 µM

COc1ccc(NC(=O)CC/C(CC(=O)c2ccccc2Cl)=N\Nc2nnc(C)n2N)cc1
inactive: [1] > 100 µM | [2] > 100 µM | [3] 61.9 µM | [16] > 100 µM | [4] > 100 µM | [5] > 100 µM | [6] > 100 µM | [7] > 100 µM | [8] > 100 µM | [10] > 100 µM | [12] > 100 µM | [13] > 100 µM | [14] > 100 µM | [15] > 100 µM

COc1ccc(C(=O)C(CC2C(=O)NC(=O)NC2=O)c2ccc(OC)cc2)cc1 (configuration not stated)
inactive: [1] > 100 µM | [3] > 100 µM | [16] > 100 µM | [4] > 100 µM | [17] > 100 µM | [5] > 100 µM | [6] > 100 µM | [7] > 100 µM | [8] > 100 µM | [9] > 100 µM | [10] > 100 µM | [11] > 100 µM | [12] > 100 µM | [13] > 100 µM | [14] > 100 µM | [15] > 100 µM

NC(=O)c1nc(-c2ccc(Cl)c(Cl)c2)nc2ccccc12
inactive: [1] > 20.8 µM | [2] 1.56 µM | [3] > 31.6 µM | [16] > 100 µM | [4] 39.7 µM | [17] > 100 µM | [5] > 100 µM | [7] 13.4 µM | [8] 9.42 µM | [9] > 49.3 µM | [10] > 100 µM | [11] 2.68 µM | [12] > 22 µM | [13] > 29.1 µM | [14] > 24.9 µM

CCC12C=CCN(CCc3c([nH]c4ccccc34)/C=C\1)C2 (configuration not stated)
inactive: [1] > 100 µM | [3] > 100 µM | [16] > 100 µM | [4] > 100 µM | [17] > 100 µM | [5] > 100 µM | [7] > 100 µM | [8] > 100 µM | [9] > 100 µM | [10] > 100 µM | [11] 44.6 µM | [12] > 100 µM | [13] > 100 µM | [14] > 100 µM | [15] > 100 µM
